Numbered stars: 1 amine (or outer) side, 2 acyl side, 3 side chain; on linkers, the order of the positions; unused ones are H or OH. Bridge positions count the residues as written; N and C are the ends. Square brackets hold non-standard residues; d marks the D form. Peptide text beside a SMILES is read from it. Bip = N[C@@H](Cc1ccc(-c2ccccc2)cc1)C(=O)O; Phe(4-NH2) = Nc1ccc(C[C@H](N)C(=O)O)cc1; Diglycolyl = O=C(COCC(=O)[*:2])[*:1]; d(hPhe) = N[C@H](CCc1ccccc1)C(=O)O; d2Thi = N[C@H](Cc1cccs1)C(=O)O; Suc = O=C(CCC(=O)[*:2])[*:1] Some results are limits rather than exact numbers.

The target in the first test is T1, TNFα / TNFα receptor (TNFα R1/Fc) (Homo sapiens, UniProt P01375).
T1 construct: purchased R&D Systems
T1 sequence (P01375 77-233 limits assumed, species assumed): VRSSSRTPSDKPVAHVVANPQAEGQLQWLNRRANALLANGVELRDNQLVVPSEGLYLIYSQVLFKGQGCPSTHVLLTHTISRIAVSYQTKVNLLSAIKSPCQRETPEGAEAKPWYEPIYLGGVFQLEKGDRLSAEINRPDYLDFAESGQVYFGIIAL
As to the kind of experiment: Inhibition of binding of TNFα to the TNFα receptor (plate ELISA competition). The following applies: Activity (IC50, inhibition of TNFα binding to TNFα R1/Fc), Table 2. In outline: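 Plates were coated with TNFα at 15 nM. Test compound and 8.33 nM receptor-Fc (PBST, 2% DMSO) were first mixed in solution for 30 min at room temperature, then transferred to the plates for another 30 min. Competition was read by absorbance at 450 nm after HRP anti-human IgG Fc detection with TMB.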
For orientation: An ELISA detects its analyte on a solid surface through an enzyme-linked reagent.
As to `O=C1COc2ccc(cc2)C[C@@H](C(=O)N2CCC[C@@H]2C(=O)O)NC(=O)[C@@H](CCc2ccccc2)NC(=O)[C@H](Cc2ccc(-c3ccccc3)cc2)NC(=O)[C@@H](Cc2cccs2)N1` [Compound 303], the IC50 is 10 to 30 µM.

The test is the same for the next values; noted with them: Table 2; read-out: Activity (IC50, inhibition of TNFα binding to TNFα R1/Fc).
For `O=C(O)[C@@H]1Cc2ccc(cc2)NC(=O)[C@H](O)[C@@H](O)C(=O)N[C@@H](Cc2cccs2)C(=O)N[C@H](Cc2ccc(-c3ccccc3)cc2)C(=O)N[C@H](Cc2ccccc2)C(=O)N1` [Compound 272], the IC50 is more than 100 µM.
Turning to `O=C(O)[C@@H]1Cc2ccc(cc2)NC(=O)[C@H](O)[C@@H](O)C(=O)N[C@H](Cc2cccs2)C(=O)N[C@H](Cc2ccc(-c3ccccc3)cc2)C(=O)N[C@@H](Cc2ccccc2)C(=O)N1` [Compound 274], the IC50 was more than 100 µM.
As for `O=C1N[C@@H](C(=O)O)Cc2ccc(cc2)NC(=O)[C@H](O)[C@@H](O)C(=O)N[C@H](Cc2cccs2)C(=O)N[C@@H](Cc2ccc(-c3ccccc3)cc2)C(=O)N[C@H]1Cc1ccccc1` [Compound 275], the IC50 was more than 100 µM.
Same read-out and setting: as for `O=C(O)[C@H]1Cc2ccc(cc2)NC(=O)[C@H](O)[C@@H](O)C(=O)N[C@H](Cc2cccs2)C(=O)N[C@H](Cc2ccc(-c3ccccc3)cc2)C(=O)N[C@H](Cc2ccccc2)C(=O)N1` [Compound 276], the figure is more than 100 µM; as for `O=C1N[C@H](Cc2ccccc2)C(=O)N[C@@H](C(=O)O)Cc2ccc(cc2)NC(=O)[C@H](O)[C@@H](O)C(=O)N[C@@H](Cc2cccs2)C(=O)N[C@H]1Cc1ccc(-c2ccccc2)cc1` [Compound 277], more than 100 µM.
Same read-out and setting: then `O=C1N[C@@H](C(=O)O)Cc2ccc(cc2)NC(=O)[C@H](O)[C@@H](O)C(=O)N[C@@H](Cc2cccs2)C(=O)N[C@H](Cc2ccc(-c3ccccc3)cc2)C(=O)N[C@H]1Cc1ccccc1` [Compound 278], with more than 100 µM.
On the same count and under the same terms, as for `O=C1N[C@@H](C(=O)O)Cc2ccc(cc2)NC(=O)[C@H](O)[C@@H](O)C(=O)N[C@@H](Cc2cccs2)C(=O)N[C@H](Cc2ccc(-c3ccccc3)cc2)C(=O)N[C@H]1Cc1ccccc1` [Compound 279], the figure is more than 100 µM; as for `O=C1N[C@@H](Cc2ccccc2)C(=O)N[C@@H](C(=O)O)Cc2ccc(cc2)NC(=O)[C@H](O)[C@@H](O)C(=O)N[C@@H](Cc2cccs2)C(=O)N[C@H]1Cc1ccc(-c2ccccc2)cc1` [Compound 280], more than 100 µM.
Regarding `O=C1N[C@@H](C(=O)O)Cc2ccc(cc2)NC(=O)[C@H](O)[C@@H](O)C(=O)N[C@H](Cc2cccs2)C(=O)N[C@H](Cc2ccc(-c3ccccc3)cc2)C(=O)N[C@H]1Cc1ccccc1` [Compound 281], the IC50 was more than 100 µM.
`O=C(O)[C@@H]1Cc2ccc(cc2)NC(=O)[C@H](O)[C@@H](O)C(=O)N[C@H](Cc2cccs2)C(=O)N[C@@H](Cc2ccc(-c3ccccc3)cc2)C(=O)N[C@H](Cc2cccs2)C(=O)N1` [Compound 283]: the IC50 is less than 10 µM.
Turning to `O=C(O)[C@@H]1Cc2ccc(cc2)NC(=O)[C@H](O)[C@@H](O)C(=O)N[C@H](Cc2cccs2)C(=O)N[C@@H](Cc2ccc(-c3ccccc3)cc2)C(=O)N[C@H](Cc2ccco2)C(=O)N1` [Compound 284], the IC50 lay in the range of 10 to 30 µM.
Consider `N#Cc1ccccc1C[C@H]1NC(=O)[C@H](Cc2ccc(-c3ccccc3)cc2)NC(=O)[C@@H](Cc2cccs2)NC(=O)[C@H](O)[C@@H](O)C(=O)Nc2ccc(cc2)C[C@@H](C(=O)O)NC1=O` [Compound 285], for which the IC50 was 30 to 100 µM.
With `O=C(O)[C@@H]1Cc2ccc(cc2)NC(=O)[C@H](O)[C@@H](O)C(=O)N[C@H](Cc2cccs2)C(=O)N[C@@H](Cc2ccc(-c3ccccc3)cc2)C(=O)N[C@H](Cc2ccccc2Cl)C(=O)N1` [Compound 286], the IC50 was 10 to 30 µM.
As to `O=C(O)[C@@H]1Cc2ccc(cc2)NC(=O)[C@H](O)[C@@H](O)C(=O)N[C@H](Cc2cccs2)C(=O)N[C@@H](Cc2ccc(-c3ccccc3)cc2)C(=O)N[C@H](Cc2ccc(Cl)cc2Cl)C(=O)N1` [Compound 287], the IC50 lay in the range of 10 to 30 µM.
Regarding `O=C(O)[C@@H]1Cc2ccc(cc2)NC(=O)[C@H](O)[C@@H](O)C(=O)N[C@H](Cc2cccs2)C(=O)N[C@@H](Cc2ccc(-c3ccccc3)cc2)C(=O)N[C@H](Cc2ccc(F)cc2)C(=O)N1` [Compound 288], the IC50 is more than 100 µM.
As for `O=C1COc2ccc(cc2)C[C@@H](C(=O)O)NC(=O)[C@H](c2ccccc2)NC(=O)[C@H](Cc2ccc(-c3ccccc3)cc2)NC(=O)[C@H](Cc2cccs2)N1` [Compound 291], the IC50 was more than 100 µM.
On to `O=C(O)[C@@H]1Cc2ccc(cc2)NC(=O)[C@H](O)[C@@H](O)C(=O)N[C@H](Cc2cccs2)C(=O)N[C@@H](Cc2ccc(Br)cc2)C(=O)N[C@H](Cc2ccccc2)C(=O)N1` [Compound 293], for which the IC50 is more than 100 µM.
Regarding `O=C1N[C@H](Cc2ccccc2)C(=O)N[C@H](C(=O)O)Cc2ccc(cc2)NC(=O)[C@H](O)[C@@H](O)C(=O)N[C@H](Cc2cccs2)C(=O)NC1c1ccc(Br)cc1` (stereo partly shown) [Compound 294], the IC50 is 30 to 100 µM.
`NCCCC[C@H](NC(=O)[C@@H]1Cc2ccc(cc2)NC(=O)CCC(=O)N[C@H](CCc2ccccc2)C(=O)N[C@@H](Cc2ccc(-c3ccccc3)cc2)C(=O)N[C@H](Cc2ccccc2)C(=O)N1)C(=O)O` [Compound 295] ([d(hPhe)][Bip][dF][Phe(4-NH2)]K-OH; linker N-4 via Suc): the IC50 fell in the range of 10 to 30 µM.
With `NCCCC[C@H](NC(=O)[C@@H]1Cc2ccc(cc2)NC(=O)[C@H](O)[C@@H](O)C(=O)N[C@H](Cc2cccs2)C(=O)N[C@@H](Cc2ccc(-c3ccccc3)cc2)C(=O)N[C@H](Cc2ccccc2)C(=O)N1)C(=O)O` [Compound 296], the IC50 was 30 to 100 µM.
Take `O=C1COc2ccc(cc2)C[C@@H](C(=O)N2CCC(C(=O)O)CC2)NC(=O)[C@@H](CCc2ccccc2)NC(=O)[C@H](Cc2ccc(-c3ccccc3)cc2)NC(=O)[C@@H](Cc2cccs2)N1` [Compound 306]: the IC50 was less than 10 µM.
In the case of `O=C(O)CC[C@H](NC(=O)[C@@H]1Cc2ccc(cc2)OCC(=O)N[C@H](Cc2cccs2)C(=O)N[C@@H](Cc2ccc(-c3ccccc3)cc2)C(=O)N[C@H](CCc2ccccc2)C(=O)N1)C(=O)O` [Compound 308], the IC50 is more than 100 µM.
`O=C(O)C[C@@H]1Cc2ccc(cc2)NC(=O)[C@H](O)[C@@H](O)C(=O)N[C@H](Cc2cccs2)C(=O)N[C@@H](Cc2ccc(-c3ccccc3)cc2)C(=O)N[C@H](Cc2ccccc2)C(=O)N1` [Compound 309]: the IC50 lay in the range of 10 to 30 µM.
For `O=C1COCC(=O)N[C@H](Cc2cccs2)C(=O)N[C@@H](Cc2ccc(-c3ccccc3)cc2)C(=O)N[C@H](Cc2ccccc2)C(=O)N[C@H](C(=O)O)Cc2ccc(cc2)N1` [Compound 310] ([d2Thi][Bip][dF][Phe(4-NH2)]-OH; linker N-4 via Diglycolyl), the IC50 was more than 100 µM.
In the case of `O=C(O)[C@@H]1Cc2ccc(cc2)NC(=O)[C@H](O)[C@@H](O)C(=O)N[C@H](Cc2cccnc2)C(=O)N[C@@H](Cc2ccc(-c3ccccc3)cc2)C(=O)N[C@H](Cc2ccccc2)C(=O)N1` [Compound 311], the IC50 lay in the range of 30 to 100 µM.
As to `O=C(O)[C@@H]1Cc2ccc(cc2)NC(=O)[C@H](O)[C@@H](O)C(=O)N[C@H](c2ccccc2)C(=O)N[C@@H](Cc2ccc(-c3ccccc3)cc2)C(=O)N[C@H](Cc2ccccc2)C(=O)N1` [Compound 312], the IC50 was more than 100 µM.
Take `N#Cc1ccccc1C[C@H]1NC(=O)[C@H](O)[C@@H](O)C(=O)Nc2ccc(cc2)C[C@@H](C(=O)O)NC(=O)[C@@H](Cc2ccccc2)NC(=O)[C@H](Cc2ccc(-c3ccccc3)cc2)NC1=O` [Compound 314]: the IC50 is 10 to 30 µM.

For the origin of these results see patent US8338565B2, “Macrocyclic compounds for inhibition of tumor necrosis factor alpha” (Ensemble Therapeutics Corporation, priority 2008, dated 2012).
